Data published in US9028463B2 (priority 2008, dated 2015).

Tests used:
type A strain (H1N1) = system: type A strain (H1N1); design: species or system ddY mice; details: mouse, in vivo
type B strain = system: type B strain; design: species or system ddY mice; details: mouse, in vivo

`CCCCCCCCCCCCO` [lauryl alcohol] was tested, and the “HI antibody titer for type A with lauryl alcohol as adjuvant in combination” value (type A strain (H1N1)) was “HI antibody titer for type A increased” and the “HI antibody titer for type B with lauryl alcohol as adjuvant in combination” value (type B strain) was “remarkable effect was exerted on type B”.
